# Tests used:
# Test in all cases: relative viability (nuclei count vs DMSO), 5 days (fraction); higher = more cells survive
# [1] = test system: LOU-NH91
# Summary of the method: (§1)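 Each reported value is a median over duplicate plates. It expresses relative viability: treated-well nuclei count divided by vehicle-well nuclei count. Lung cancer cell lines in 1536-well plates were dosed by pin tool a day after seeding, alone with one drug or with a fixed anchor-drug dose plus five library-drug doses (not always all listed) in √10 steps, and nuclei were counted after 5 days.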
# [2] = test system: A-427
# Summary of the method: as §1
# [3] = test system: H3255
# Summary of the method: as §1
# [4] = test system: NCI-H2170
# Summary of the method: as §1
# [5] = test system: SW 900
# Summary of the method: as §1
# [6] = test system: ChaGo-K-1
# Summary of the method: as §1
# [7] = test system: PC-3 [JPC-3]
# Summary of the method: as §1
# [8] = test system: NCI-H1755
# Summary of the method: as §1
# [9] = test system: LK-2
# Summary of the method: as §1
# [10] = test system: HCC-366
# Summary of the method: as §1
# [11] = test system: NCI-H1944
# Summary of the method: as §1
structure (smiles),measurement,setting,value
Clc1ccc(Nc2nnc(Cc3ccncc3)c3ccccc23)cc1 [Vatalanib] + O=C(CCCCCCC(=O)Nc1ccccc1)NO [Vorinostat] (partner 1 µM),relative viability,[1]; first compound 0.04 µM,0.939
same,relative viability,[1]; first compound 0.1265 µM,0.874
same,relative viability,[1]; first compound 0.4 µM,0.955
same,relative viability,[1]; first compound 1.265 µM,0.783
same,relative viability,[1]; first compound 4 µM,0.882
same,relative viability,[2]; first compound 0.04 µM,0.874
same,relative viability,[2]; first compound 0.1265 µM,0.852
same,relative viability,[2]; first compound 0.4 µM,0.945
same,relative viability,[2]; first compound 4 µM,0.83
same,relative viability,[3]; first compound 0.04 µM,0.744
same,relative viability,[3]; first compound 0.1265 µM,0.832
same,relative viability,[3]; first compound 0.4 µM,0.714
same,relative viability,[3]; first compound 1.265 µM,0.746
same,relative viability,[3]; first compound 4 µM,0.689
same,relative viability,[4]; first compound 0.04 µM,0.858
same,relative viability,[4]; first compound 0.1265 µM,0.853
same,relative viability,[4]; first compound 0.4 µM,0.825
same,relative viability,[4]; first compound 1.265 µM,0.743
same,relative viability,[4]; first compound 4 µM,0.764
same,relative viability,[5]; first compound 0.04 µM,0.551
same,relative viability,[5]; first compound 0.1265 µM,0.549
same,relative viability,[5]; first compound 0.4 µM,0.583
same,relative viability,[5]; first compound 1.265 µM,0.344
same,relative viability,[5]; first compound 4 µM,0.591
same,relative viability,[6]; first compound 0.04 µM,0.787
same,relative viability,[6]; first compound 0.1265 µM,0.758
same,relative viability,[6]; first compound 0.4 µM,0.848
same,relative viability,[6]; first compound 1.265 µM,0.766
same,relative viability,[6]; first compound 4 µM,0.788
same,relative viability,[7]; first compound 0.04 µM,0.837
same,relative viability,[7]; first compound 0.1265 µM,0.736
same,relative viability,[7]; first compound 0.4 µM,0.721
same,relative viability,[7]; first compound 1.265 µM,0.342
same,relative viability,[7]; first compound 4 µM,0.688
same,relative viability,[8]; first compound 0.04 µM,0.799
same,relative viability,[8]; first compound 0.1265 µM,0.891
same,relative viability,[8]; first compound 0.4 µM,0.757
same,relative viability,[8]; first compound 1.265 µM,0.759
same,relative viability,[8]; first compound 4 µM,0.694
same,relative viability,[9]; first compound 0.04 µM,0.388
same,relative viability,[9]; first compound 0.1265 µM,0.314
same,relative viability,[9]; first compound 0.4 µM,0.328
same,relative viability,[9]; first compound 1.265 µM,0.308
same,relative viability,[9]; first compound 4 µM,0.222
same,relative viability,[10]; first compound 0.04 µM,0.361
same,relative viability,[10]; first compound 0.1265 µM,0.434
same,relative viability,[10]; first compound 0.4 µM,0.451
same,relative viability,[10]; first compound 1.265 µM,0.254
same,relative viability,[10]; first compound 4 µM,0.394
same,relative viability,[11]; first compound 0.04 µM,0.546
same,relative viability,[11]; first compound 0.1265 µM,0.523
same,relative viability,[11]; first compound 0.4 µM,0.676
same,relative viability,[11]; first compound 1.265 µM,0.529
same,relative viability,[11]; first compound 4 µM,0.526
